Here are results for 23 molecules from patent US7074801B1, “Nitrogen-containing condensed cyclic compound having a pyrazolyl group as a substituent group and pharmaceutical composition thereof” (Eisai Co., Ltd., priority 2001, dated 2006).

Where a name gives a salt, the structure may show the parent alone.

The test relates to STAT6. Kind of test: Inhibitory test on STAT6 activation: IL-4-induced alkali phosphatase STAT6 reporter in 293 cells stably expressing the STAT6 gene and STAT6 reporter gene. It counts as cell-based. To be noted: HEK293; Table 2; 1 ng/ml human recombinant IL-4, 16 hours, 293 cells with STAT6 reporter; read-out: Inhibitory activity IC50 (concentration at which the alkali phosphatase activity induced by IL-4 was inhibited by 50%). In short, it runs like this: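 HEK293 clone stably carrying STAT6 and a STAT6-element-driven alkaline phosphatase reporter, 5000 cells/well. Compound (DMSO ≤0.1%) plus 1 ng/ml human IL-4 for 16 hours. Supernatant heat-treated 65° C. 10 minutes, then alkaline phosphatase measured fluorometrically in carbonate buffer.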
In general terms: Reporter assays use an easily measured gene product as a stand-in for the process of interest.

Take `O=C(NC1=NCCS1)c1ccc(-c2cnc3ccc(-c4cn[nH]c4)cn23)cc1F` [Example 712, N1-(4,5-Dihydro-1,3-thiazol-2-yl)-2-fluoro-4-[6-(1H-4-pyrazolyl)imidazo[1,2-a]pyridin-3-yl]benzamide dihydrochloride]: the IC50 was < 10 nM. The same measure for `COC1CCN(C(=O)c2ccc(-n3cnc4ccc(-c5c[nH]nc5-c5ccc(F)cc5)cc43)nc2)C1` (centres unmarked) [Example 725, 6-{6-[3-(4-Fluorophenyl)-1H-4-pyrazolyl]-1H-benzo[d]imidazol-1-yl}-pyridin-3-yl)-(3-methoxypyrrolidin-1-yl)methanone dihydrochloride]: < 10 nM; for `Fc1cccc(F)c1-c1n[nH]cc1-c1ccc2ncn(-c3ccc(Cl)cn3)c2c1` [Example 727, 1-(5-Chloropyridin-2-yl)-6-[3-(2,6-difluorophenyl)-1H-4-pyrazolyl]-1H-benzo[d]imidazole trihydrochloride]: < 10 nM; for `Cc1ccnc(NC(=O)c2ccc(-n3cnc4ccc(-c5cn[nH]c5)cc43)cc2F)c1` [Example 728, N1-(4-Methyl-2-pyridyl)-2-fluoro-4-[6-(1H-4-pyrazolyl)-1H-benzo[d]imidazol-1-yl]benzamide trihydrochloride]: < 10 nM. The same measure for `C[C@H](NC(=O)c1ccc(-n2cnc3ccc(-c4cn[nH]c4)cc32)cc1F)C(=O)c1ccc(F)cc1` [Example 729, N1-[(1S)-2-(4-Fluorophenyl-1-methyl-2-oxoethyl)-2-fluoro-4-[6-(1H-4-pyrazolyl)-1H-benzo[d]imidazol-1-yl]benzamide hydrochloride]: < 10 nM; for `CS(=O)(=O)c1cc(F)cc(N2CCN(c3ncnc4ccc(-c5cn[nH]c5)cc34)CC2)c1` [Example 845, 4-[4-(3-Fluoro-5-methylsulfonylphenyl)piperazin-1-yl]-6-(1H-4-pyrazolyl)quinazoline dihydrochloride]: < 10 nM.

`O=S(=O)(c1ccc(-c2ncnc3ccc(-c4c[nH]nc4-c4ccc(F)cc4)cc23)s1)N1CCCC1` [Example 850, 6-[3-(4-Fluorophenyl)-1H-pyrazol-4-yl]-4-[5-(pyrrolidine-1-sulfonyl)thiophen-2-yl]quinazoline dihydrochloride]: the IC50 fell in the range of 100 to 1000 nM. The same measure for `CN(C)CCN(C)S(=O)(=O)c1ccc(-c2ncnc3ccc(-c4c[nH]nc4-c4ccc(F)cc4)cc23)s1` [Example 855, 5-{6-[3-(4-Fluorophenyl)-1H-pyrazol-4-yl]quinazolin-4-yl}-thiophen-2-sulfonic acid (2-dimethylaminoethyl)methylamide trihydrochloride]: < 10 nM. The same measure for `CN(c1ccccc1)S(=O)(=O)c1ccc(-c2ncnc3ccc(-c4c[nH]nc4-c4ccc(F)cc4)cc23)s1` [Example 856, 5-{6-[3-(4-Fluorophenyl)-1H-pyrazol-4-yl]quinazolin-4-yl}-thiophen-2-sulfonic acid methylphenylamide dihydrochloride]: 100 to 1000 nM.

With `CN(CC(=O)c1ccc(F)cc1)S(=O)(=O)c1ccc(-c2ncnc3ccc(-c4c[nH]nc4-c4ccc(F)cc4)cc23)s1` [Example 866, 5-{6-[3-(4-Fluorophenyl)-1H-pyrazol-4-yl]quinazolin-4-yl}thiophen-2-sulfonic acid [2-(4-fluorophenyl) 2-oxoethyl]methylamide dihydrochloride], the IC50 lay within 10 to 100 nM. Regarding `O=C(Nc1ccc(F)cc1F)c1ccc(-c2ncnc3ccc(-c4cn[nH]c4)cc23)s1` [Example 869, 5-[6-(1H-Pyrazol-4-yl)quinazolin-4-yl]thiophen-2-carboxylic acid (2,4-difluorophenyl)amide dihydrochloride], the IC50 is 10 to 100 nM.

Turning to `O=C(Nc1nccs1)c1ccc(-c2ncnc3ccc(-c4cn[nH]c4)cc23)cc1F` [Example 872, 2-Fluoro-N-thiazol-2-yl-4-[6-(1H-pyrazol-4-yl)quinazolin-4-yl]benzamide trihydrochloride], the IC50 lay within 10 to 100 nM. With `O=C(NC1CC1)c1ccc(-c2ncnc3ccc(-c4c[nH]nc4-c4ccc(F)cc4F)cc23)cc1F` [Example 873, N-Cyclopropyl-4-{6-[3-(2,4-difluorophenyl)-1H-pyrazol-4-yl]quinazolin-4-yl}-2-fluorobenzamide dihydrochloride], the IC50 lay in the range of 100 to 1000 nM. For the molecule `Cc1n[nH]cc1-c1ccc2ncnc(N3CCC(Oc4cccc(C#N)c4)CC3)c2c1` [Example 876, 3-{1-[6-(3-Methyl-1H-pyrazol-4-yl)quinazolin-4-yl]piperidin-4-yloxy} benzonitrile trihydrochloride], the IC50 fell in the range of 10 to 100 nM.

As for `CS(=O)(=O)c1ccc(C(=O)C2CCN(c3ncnc4ccc(-c5cn[nH]c5)cc34)CC2)s1` [Example 880, (5-Methylsulfonylthiophen-2-yl)-{1-[6-(1H-pyrazol-4-yl)quinazolin-4-yl]piperidin-4-yl}methanone trihydrochloride], the IC50 lay in the range of 10 to 100 nM. The same measure for `CNc1ccc(-c2n[nH]cc2-c2ccc3ncnc(-c4ccc(S(C)(=O)=O)s4)c3c2)cc1` [Example 883, (4-{4-[4-(5-Methylsulfonylthiophen-2-yl)quinazolin-6-yl]-1H-pyrazol-3-yl}phenyl) methylamine]: < 10 nM. In the case of `CS(=O)(=O)c1ccc(-c2ncnc3ccc(-c4c[nH]nc4-c4ccc(N5CCOCC5)cc4)cc23)s1` [Example 887, 4-(5-Methylsulfonylthiophen-2-yl)-6-[3-(4-morpholin-4-ylphenyl)-1H-pyrazol-4-yl] quinazoline] it was 10 to 100 nM. The same measure for `COc1ccc(-c2ccc(-c3n[nH]cc3-c3ccc4ncnc(-c5ccc(S(C)(=O)=O)s5)c4c3)cc2)cn1` [Example 889, 6-{3-[4-(6-Methoxypyridin-3-yl)phenyl]-1H-pyrazol-4-yl}-4-(5-methylsulfonylthiophen-2-yl) quinazoline]: 10 to 100 nM; for `Cc1ccc(-c2n[nH]cc2-c2ccc3ncnc(-c4ccc(S(C)(=O)=O)s4)c3c2)cc1` [Example 890, 4-(5-Methylsulfonylthiophen-2-yl)-6-(3-p-tolyl-1H-pyrazol-4-yl) quinazoline]: < 10 nM; for `CS(=O)(=O)c1ccc(-c2ncnc3ccc(-c4c[nH]nc4-c4ccc(OC(F)(F)F)cc4)cc23)s1` [Example 892, 4-(5-Methylsulfonylthiophen-2-yl)-6-[3-(4-trifluoromethoxyphenyl)-1H-pyrazol-4-yl] quinazoline]: 10 to 100 nM. Turning to `CS(=O)(=O)c1ccc(-c2ncnc3ccc(-c4c[nH]nc4-c4ccc(Cl)cc4F)cc23)s1` [Example 894, 6-[3-(4-Chloro-2-fluorophenyl)-1H-pyrazol-4-yl]-4-(5-methylsulfonylthiophen-2-yl) quinazoline], the IC50 was < 10 nM. Regarding `CSc1ccc(-c2n[nH]cc2-c2ccc3ncnc(-c4ccc(S(C)(=O)=O)s4)c3c2)cc1` [Example 895, 6-[3-(4-Methylsulfanylphenyl)-1H-pyrazol-4-yl]-4-(5-methylsulfonylthiophen-2-yl) quinazoline], the IC50 is < 10 nM. The same measure for `CCS(=O)(=O)c1ccc(-c2ncnc3ccc(-c4c[nH]nc4-c4ccc(F)cc4)cc23)s1` [Example 896, 4-(5-Ethanesulfonylthiophen-2-yl)-6-[3-(4-fluorophenyl)-1H-pyrazol-4-yl] quinazoline]: < 10 nM.
